From patent publication US6878364B2, “Animal model for flaviviridae infection” (Cornell Research Foundation, Inc., priority 2000, dated 2005)
Read-outs that look alike come from different tables or passages of the source.

Experiments:
in vitro = assay type: cell-based; conditions: bovine
[1] = tested on: cpBVDV (cytopathogenic NADL isolate of BVDV); assay: microbe, parasite or virus in culture; conditions: Bovine viral diarrhea virus isolates and strains, in Marmota monax, 72 h, read-out: ckEC50 (drug concentration sufficient to inhibit 50% of viral induced cell killing)
Experimental: (§1) BVDV stocks and titration: The cytopathogenic NADL isolate of BVDV (cpBVDV) was used for the purposes of this study. A viral stock was made by freeze-thaw of a bovine testicular cell line 5 days after infection with cpBVDV. Virus propagated in bovine cells and woodchuck cell cultures was tittered in NCL cells by measuring cytopathic effects (CPE). NCL cells grown to confluence, were passaged to 96 well microtiter plates at a density of 2×10^4 cells/well (5×10^5/cm^2) and incubated for one hour to allow cell attachment. After attachment, cell cultures were inoculated with serially diluted tissue culture supernatant samples. The endpoint BVDV titer was taken as the reciprocal of the last dilution in which cells were killed 5 days post-infection in one of three triplicate wells, assayed by methylene blue staining.
(§2) Methylene blue assay: A quantitative measure of cell numbers was obtained through reading the absorbance of methylene blue (Sigma, St. Louis, Mo.) uptake by viable cells. Briefly, three days after infection of cells with cpBVDV, cultures were rinsed with phosphate buffered saline (PBS; Life Technologies) followed by fixation in a Hanks balanced salt solution (HBSS; LifeTechnologies) consisting of 1.25% glutaraldehyde (Fisher Scientific, Fair Lawn, N.J.) and 0.06% methylene blue (Sigma), for 1 hour at 37° C. […] The absorbance of the methylene blue in solution was measured using an ELISA plate reader (Model EL311; Bio-Tek instruments Inc., Winooski, Vt.) with a light filter setting at 630 nm. A standard curve was established for each cell line relating absorbance with cell numbers. […]
(§3) The medium was replenished daily with drug and the antiviral effect, cytotoxicity, and reduction in viral yield determined after three days of treatment.
(§4) Cell killing due to cpBVDV infection and drug cytotoxicity was calculated for each experimental data point and plotted. […] A drug concentration sufficient to inhibit 50% of viral induced cell killing (ckEC50) was determined using a peak, log normal, 4 parameter equation. […] A selectivity index (SI) was determined as the CC50/EC90 ratio.

[2] = tested on: cpBVDV (cytopathogenic NADL isolate of BVDV)
Experimental: as §1, §2, §3, §4

[3] = tested on: cpBVDV (cytopathogenic NADL isolate of BVDV); assay: microbe, parasite or virus in culture; conditions: Bovine viral diarrhea virus isolates and strains, in Bos taurus, 72 h, read-out: ckEC50 (drug concentration sufficient to inhibit 50% of viral induced cell killing)
Experimental: as §1, §2, §3, §4

[4] = Cytotoxicity on uninfected WCH-8 cells (methylene blue assay); assay type: cell-based; conditions: woodchuck, uninfected woodchuck hepatic WCH-8 cells, three days of treatment
[5] = Cytotoxicity on uninfected woodchuck primary hepatocytes (CytoTox96); assay type: cell-based
[6] = tested on: cpBVDV (cytopathogenic NADL isolate of BVDV); remark: listed apart in the source
Experimental: Virus propagated in bovine cells and woodchuck cell cultures was tittered in NCL cells by measuring cytopathic effects (CPE). NCL cells grown to confluence, were passaged to 96 well microtiter plates at a density of 2×10^4 cells/well (5×10^5/cm^2) and incubated for one hour to allow cell attachment. After attachment, cell cultures were inoculated with serially diluted tissue culture supernatant samples. The endpoint BVDV titer was taken as the reciprocal of the last dilution in which cells were killed 5 days post-infection in one of three triplicate wells, assayed by methylene blue staining.
Antiviral assay: A lyophilized form of Ribavirin (Virazole^R; Viratek, Inc., Covina, Calif.) was dissolved in H2O to a yield a stock concentration of 100 mM and serially diluted two fold in culture medium prior to testing over a range of 100-0.049 μM. Ribavirin was evaluated in woodchuck WCH-8 cells and in bovine NCL cells in a 96 well format using the methylene blue assay to measure cell viability. The medium was replenished daily with drug and the antiviral effect, cytotoxicity, and reduction in viral yield determined after three days of treatment. […]
Cell killing due to cpBVDV infection and drug cytotoxicity was calculated for each experimental data point and plotted. […] A selectivity index (SI) was determined as the CC50/EC90 ratio.

HCV = conditions: cited from earlier work
[7] = tested on: cpBVDV (cytopathogenic NADL isolate of BVDV); remark: listed apart in the source
Experimental: as §1, §2, §3, §4

## NC(=O)c1ncn([C@@H]2O[C@H](CO)[C@@H](O)[C@H]2O)n1 [Ribavirin, 1-β-D-ribofuranosyl-1-1,2,4-triazole-3-carboxamide]
In vitro
  CC50 at 3 days: 4.3 µM
[1]
  EC50: 1.5 µM
[2]; NCL cells
  selectivity index (CC50/tEC90): 1.7
[2]; cpBVDV-infected NCL cells, three days of treatment
  tEC90 (drug concentration which reduced viral titers by 90%): 3.1 µM
[3]
  EC50: 5.2 µM
[4]
  CC50 at 3 days: 2.9 µM
[5]
  CC50: 44.8 µM
[6]; cpBVDV-infected woodchuck primary hepatocytes
  tEC90 (drug concentration which reduced viral titers by 90%): 3 µM
[6]; woodchuck primary hepatocytes
  selectivity index (CC50/tEC90): 14.9
HCV
  patients with serum amino transferase levels reduced to normal: 40%
[7]; WCH-8 cells
  selectivity index (CC50/tEC90): 2.7
[7]; cpBVDV-infected WCH-8 cells, three days of treatment
  tEC90 (drug concentration which reduced viral titers by 90%): 1.1 µM
